From patent publication US9376420B2 (YUHAN CORPORATION, priority 2012, dated 2016) come the findings set out here.

The assay has as its target T1, human LXRβ (Homo sapiens, UniProt P55055).
T1 construct: expressed in transfected cells; host or cells: HEK293 cells (ATCC CRL-1573), transient transfection with pFA-hLXRβ/GAL4 and pUAS
T1 sequence (P55055 222-460 limits assumed): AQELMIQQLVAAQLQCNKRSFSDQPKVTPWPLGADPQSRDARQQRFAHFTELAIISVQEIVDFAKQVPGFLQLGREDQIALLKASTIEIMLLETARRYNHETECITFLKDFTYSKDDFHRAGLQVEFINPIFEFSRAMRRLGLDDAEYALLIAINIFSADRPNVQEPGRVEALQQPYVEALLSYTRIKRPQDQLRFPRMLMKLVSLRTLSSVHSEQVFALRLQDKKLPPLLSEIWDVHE
Description: Assay for Transcriptional Activity of LXRβ (GAL4-hLXRβ LBD luciferase reporter, transient transfection). Type of assay: cell-based. The settings on record: HEK293 cells transfected with pFA-hLXRβ/GAL4 and pUAS, 24 hours; for Emax: fold value in comparison with the control (DMSO-treated group); for EC50: increase of transcriptional activity of LXRβ, average of three independent tests. The source says: The ligand-binding domain (LBD) cDNA of human LXRβ was inserted into an expression vector (pFA, Stratagene, USA) site adjacent to the yeast GAL4 transcription factor DNA binding domain to prepare an expression construct (pFA-hLXRβ/GAL4) (Willey et al., Genes & Development 9 1033-1045 (1995). The GAL4-responsive luciferase reporter plasmid, i.e., pUAS (Stratagene, USA), contained five copies of the GAL4 response element placed adjacent to the promoter and the luciferase reporter gene. The pFA-hLXRβ/GAL4 and pUAS were introduced into mammalian cells through transient transfection, followed by measuring the transcriptional activity of LXRβ.
HEK293 cells (human kidney cells, sATCC, CRL-1573) were incubated at a T-75 flask containing a DMEM supplemented with 10% fetal bovine serum (FBS) in a 37° C., until they reach about 70˜80% confluency. The culture media containing the cells was added to each well of a 96-well plate in a density of 5×10^4 cells per well. The pFA-hLXRβ/GAL4 and pUAS was transfected to the cells using a cationic-lipid transfection reagent (Lipofectamine™, Invitrogen), through culturing at 37° C. for 3 hours for transient transfection according to the manufacturer's instruction. The test compounds were dissolved in dimethyl sulfoxide (DMSO) in the concentrations of 50, 30, 10, 3, 1, 0.3, 0.1, 0.03, and 0.01 μM and then cells were treated with the prepared compound-containing solution (100 μl). The cells were incubated at 37° C. for 24 hours. After removal of the medium from each well, the lysis buffer (25 mM Tricine pH7.8, 2 mM DTT, 2 mM EGTA, 10% glycerol, 1% Triton X-100) was added with the amount of 20 μl per each well, and the plate was stirred at room temperature for 15 minutes. The luciferase reagent (prepared by adding 10 ml of the luciferase buffer (Promega) to 1 vial of the luciferase substrate (Promega)) was added to each well with the amount of 100 μl per well, followed by assaying with a luminometer according to the manufacturer's instruction.
The dose-response curve for calculating the EC50 values of the test compounds on the increase of transcriptional activity of LXRβ was prepared using the known LXR agonist (i.e., N-(2,2,2-trifluoro-ethyl)-N-[4-(2,2,2-trifluoro-1-hydroxy-1-trifluoromethyl-ethyl)-phenyl]-benzenesulfonamide) as a positive control and the vehicle (DMSO) as a negative control. The dose-response curve was produced from the 9-point curve having different concentrations at a 1/2 log unit. The EC50 value of a test compound, which is defined as a concentration for initiating the reaction corresponding to the half value between the Top value (i.e., the maximum value) and the Bottom value (baseline), was calculated according to the following equation. Y=Bottom+(Top-Bottom)/(1+10^((log EC50-X)*Hill Slope)).
In the above equation, Y is the observed value; X is the log concentration; Hill Slope is the slope of the curve; and Top and Bottom are the maximum value of test compound and the baseline value, respectively.
The following tables 1 and 2 show the EC50 values of the test compounds measured as in the above. In the tables 1 and 2, each EC50 value represents an average value obtained from three independent tests.
On the technique in general: A reporter such as luciferase makes a cellular process visible.

In general, EC50 refers to the concentration that produces a half-maximal response. On to “1-(2,4-difluoro-phenyl)-5-(4-fluoro-3′-methanesulfonyl-biphenyl-3-yl)-3-pentafluoroethyl-4,5-dihydroxy-1H-pyrazole [Example 141]”, for which the Emax came to 127 fold and the EC50 stood at 18 nM.

The compound `CS(=O)(=O)c1cccc(-c2ccc(C3CC(C(F)(F)C(F)(F)F)=NN3c3ccccc3Cl)cc2)c1` (stereo not shown) [Example 5, 1-(2-chloro-phenyl)-5-[3′-(methylsulfonyl)-biphenyl-4-yl]-3-pentafluoroethyl-4,5-dihydro-1H-pyrazole] had an Emax of 48 fold and an EC50 of 330 nM.

Compound `CSc1cccc(-c2ccc(C3CC(C(F)(F)C(F)(F)F)=NN3Cc3ccccc3Cl)cc2)c1` (stereo not shown) [Example 15, 1-(2-chloro-benzyl)-5-(3′-methylsulfanyl-biphenyl-4-yl)-3-pentafluoroethyl-4,5-dihydro-1H-pyrazole] came in with an Emax of 23 fold and an EC50 of 14800 nM.

On to `CS(=O)(=O)c1cccc(-c2ccc(C3CC(C(F)(F)C(F)(F)F)=NN3c3ccc(F)cc3F)cc2)c1` (stereo not shown) [Example 18, 1-(2,4-difluoro-phenyl)-5-(3′-methanesulfonyl-biphenyl-4-yl)-3-pentafluoroethyl-4,5-dihydro-1H-pyrazole], for which the Emax is 103 fold and the EC50 is 692 nM.

`CSc1ccc(-c2cccc(C3CC(C(F)(F)C(F)(F)F)=NN3c3ccc(F)cc3F)c2)cc1` (stereo not shown) [Example 30, 1-(2,4-difluoro-phenyl)-5-(4′-methylsulfanyl-biphenyl-3-yl)-3-pentafluoroethyl-4,5-dihydro-1H-pyrazole] returned an Emax of 66 fold and an EC50 of 8570 nM.

`CSc1ccc(-c2cccc(C3CC(C(F)(F)C(F)(F)F)=NN3c3ccc(Cl)cc3F)c2)cc1` (stereo not shown) [Example 31, 1-(4-chloro-2-fluoro-phenyl)-5-(4′-methylsulfanyl-biphenyl-3-yl)-3-pentafluoroethyl-4,5-dihydro-1H-pyrazole] showed an Emax of 28 fold and an EC50 of 5660 nM.

With `CS(=O)(=O)c1ccc(-c2cccc(C3CC(C(F)(F)C(F)(F)F)=NN3c3ccc(Cl)cc3Cl)c2)cc1` (stereo not shown) [Example 41, 1-(2,4-dichloro-phenyl)-5-(4′-methanesulfonyl-biphenyl-3-yl)-3-pentafluoroethyl-4,5-dihydro-1H-pyrazole], the Emax was 89 fold and the EC50 came to 1660 nM.

Compound `C[S+]([O-])c1ccc(-c2cccc(C3CC(C(F)(F)C(F)(F)F)=NN3c3ccc(Cl)cc3Cl)c2)cc1` (stereo not shown) [Example 42, 1-(2,4-dichloro-phenyl)-5-(4′-methanesulfinyl-biphenyl-3-yl)-3-pentafluoroethyl-4,5-dihydro-1H-pyrazole] gave an Emax of 103 fold and an EC50 of 593 nM.

In the case of `CS(=O)(=O)c1ccc(-c2cccc(C3CC(C(F)(F)C(F)(F)F)=NN3c3ccc(F)cc3F)c2)cc1` (stereo not shown) [Example 51, 1-(2,4-difluoro-phenyl)-5-(4′-methanesulfonyl-biphenyl-3-yl)-3-pentafluoroethyl-4,5-dihydro-1H-pyrazole], the Emax amounted to 61 fold and the EC50 amounted to 2480 nM.

As for `C[S+]([O-])c1ccc(-c2cccc(C3CC(C(F)(F)C(F)(F)F)=NN3c3ccc(F)cc3F)c2)cc1` (stereo not shown) [Example 52, 1-(2,4-difluoro-phenyl)-5-(4′-methanesulfinyl-biphenyl-3-yl)-3-pentafluoroethyl-4,5-dihydro-1H-pyrazole], the Emax is 56 fold and the EC50 amounted to 546 nM.

For the compound `CS(=O)(=O)c1ccc(-c2cccc(C3CC(C(F)(F)C(F)(F)F)=NN3c3ccc(Cl)cc3F)c2)cc1` (stereo not shown) [Example 53, 1-(4-chloro-2-fluoro-phenyl)-5-(4′-methanesulfonyl-biphenyl-3-yl)-3-pentafluoroethyl-4,5-dihydro-1H-pyrazole], the Emax worked out at 61 fold and the EC50 was found to be 746 nM.

The compound `CS(=O)(=O)c1ccc(-c2cccc(C3CC(C(F)(F)C(F)(F)F)=NN3Cc3ccccc3Cl)c2)cc1` (stereo not shown) [Example 54, 1-(2-chloro-benzyl)-5-(4′-methanesulfonyl-biphenyl-3-yl)-3-pentafluoroethyl-4,5-dihydro-1H-pyrazole] yielded an Emax of 17 fold and an EC50 of 6430 nM.

Consider `Fc1ccc(N2N=C(C(F)(F)C(F)(F)F)CC2c2cccc(-c3ccc(F)nc3)c2)c(F)c1` (stereo not shown) [Example 55, 1-(2,4-difluoro-phenyl)-5-[3-(6-fluoro-pyridin-3-yl)-phenyl]-3-pentafluoroethyl-4,5-dihydro-1H-pyrazole], for which the Emax is reported as 73 fold and the EC50 was 4900 nM.

In turn, `COc1ccc(-c2cccc(C3CC(C(F)(F)C(F)(F)F)=NN3c3ccc(F)cc3F)c2)cn1` (stereo not shown) [Example 56, 1-(2,4-difluoro-phenyl)-5-[3-(6-methoxy-pyridin-3-yl)-phenyl]-3-pentafluoroethyl-4,5-dihydro-1H-pyrazole] returned an Emax of 78 fold and an EC50 of 2220 nM.

Compound `Fc1ccc(N2N=C(C(F)(F)C(F)(F)F)CC2c2cccc(-c3cncnc3)c2)c(F)c1` (stereo not shown) [Example 57, 1-(2,4-difluoro-phenyl)-3-pentafluoroethyl-5-[3-(5-pyrimidyl)-phenyl]-4,5-dihydro-1H-pyrazole] showed an Emax of 39 fold and an EC50 of 4770 nM.

Compound `CC(C)(C)OC(=O)N1CC=C(c2cccc(C3CC(C(F)(F)C(F)(F)F)=NN3c3ccc(F)cc3F)c2)CC1` (stereo not shown) [Example 60, 5-[3-(1-BOC-1,2,3,6-tetrahydropyridin-4-yl)-phenyl]-1-(2,4-difluoro-phenyl)-3-pentafluoroethyl-4,5-dihydro-1H-pyrazole] had an Emax of 11 fold and an EC50 of 20100 nM.

Compound `CS(=O)(=O)N1CC=C(c2cccc(C3CC(C(F)(F)C(F)(F)F)=NN3c3ccc(F)cc3F)c2)CC1` (stereo not shown) [Example 62, 1-(2,4-difluoro-phenyl)-5-[3-(1-methanesulfonyl-1,2,3,6-tetrahydropyridin-4-yl)-phenyl]-3-pentafluoroethyl-4,5-dihydro-1H-pyrazole] displayed an Emax of 59 fold and an EC50 of 1160 nM.

`CN(C)C(=O)N1CC=C(c2cccc(C3CC(C(F)(F)C(F)(F)F)=NN3c3ccc(F)cc3F)c2)CC1` (stereo not shown) [Example 64, 1-(2,4-difluoro-phenyl)-5-[3-(1-dimethylcarbamoyl-1,2,3,6-tetrahydropyridin-4-yl)-phenyl]-3-pentafluoroethyl-4,5-dihydro-1H-pyrazole] showed an Emax of 48 fold and an EC50 of 1300 nM.

The compound `CS(=O)(=O)c1cc(F)c(-c2cccc(C3CC(C(F)(F)C(F)(F)F)=NN3c3ccc(F)cc3F)c2)cc1F` (stereo not shown) [Example 68, 5-(2′,5′-difluoro-4′-methanesulfonyl-biphenyl-3-yl)-1-(2,4-difluoro-phenyl)-3-pentafluoroethyl-4,5-dihydro-1H-pyrazole] came in with an Emax of 75 fold and an EC50 of 192 nM.

With `CS(=O)(=O)c1ccc(-c2cccc(C3CC(C(F)(F)C(F)(F)F)=NN3c3ccc(F)cc3F)c2)cc1C(F)(F)F` (stereo not shown) [Example 69, 1-(2,4-difluoro-phenyl)-5-(4′-methanesulfonyl-3′-trifluoromethyl-biphenyl-3-yl)-3-pentafluoroethyl-4,5-dihydro-1H-pyrazole], the Emax is on record as 83 fold and the EC50 stood at 1100 nM.
